A word on the CC50: it is the concentration that lowers cell viability or growth by half. Lower therefore signals harm at low concentration. Usually pIC50 stands for the negative decadic logarithm of the IC50, by convention in mol/L. High values mean a low IC50, low ones a high IC50.

Data set [1] relates to Listonella (Vibrio) anguillarum, serotype O2 (FT 1801). Format: cell-based. The essentials:
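Peptide fractions were incubated with actively growing bacteria in Mueller Hinton medium at a starting concentration of 3×10^4 cells per ml. Growth was monitored continuously in a Bioscreen C reader; polymyxin B served as reference.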

In data set [2] the test system is Rhodotorula sp. Particulars: 48 h. The essentials: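 Broth microdilution in half-strength potato dextrose broth, final 2×10^5 spores per ml, peptides in two-fold dilutions from 50 μM to 0.1 μM final. Incubated in the dark without shaking at 25° C. (37° C. for C. albicans) for 48 h; MIC is lowest concentration giving 50% inhibition of visible growth, scored microscopically.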

A short description of data set [3]: in vitro. Format: cell-based, human. The following applies: human. As for the experimental part:
The toxicity of test peptides on THP-1 cells was measured using the MIT method (Mosmann, 1983), with minor modifications. To induce monocyte-macrophage differentiation, THP-1 cells were cultured in 96-well culture plates (10^6 cells/well) in a volume of 100 μl RPMI 1640 medium, containing 50 ng/ml PMA (which is known to induce the maturation of monocytes) and incubated in a humidified atmosphere of 5% CO2 at 37° C. for 48 hours. The medium was then removed and the cells were washed with PBS, added 100 μl fresh medium (without PMA) and incubated for another 24 hours. Medium was removed and the adherent macrophages were treated with 100 μl of peptide solution (concentrations ranging from 0 to 800 μg/ml), diluted in RPMI-1640 assay medium without FBS. After incubation at 37° C. for 1 hour, the cells were added LPS (0.1 μg/ml) and further incubated for 4 hours. Cells treated with Triton X-100 (1%) were used as positive control (100% killing) whereas cells plus medium only were used as negative control. Following the incubation period, 10 μl MTT (5 mg/ml) dissolved in phosphate-buffered saline (PBS) was added to each well, and the plate was further incubated for 2 hours. A volume of 70 μl of the supernatant was then removed and 100 μl acid alcohol (0.04 M HCl in isopropanol) added to each well to dissolve the dark blue crystals. The plate was placed on a shaker for 1 hour at room temperature and read spectrophotometrically at 595 nm in a microtiter plate reader (DTX880 Multimode Detector, Beckman Coulter). Cell survival (%) was then determined from the ΔA595 nm relative to negative control (100% living cells) and expressed as 50% inhibitory concentration (IC50). The IC50 values were estimated from the dose-response curves, which were obtained by averaging at least 3 parallel experiments.

Data set [4] has as its system human embryonic lung fibroblast cell line MRC-5. In kind it is cell-based. Particulars: 24 h.
Data set [5] has as its system human colorectal adenocarcinoma cell line HT-29. Format: cell-based. The following applies: 24 h.

pIC50: −log10 of the molar value. Values after ≈ are worked out from the molar mass of the structure shown. Residues, ends and D or L forms follow the SMILES beside them. No end group written: not given here.

For `CC[C@H](C)[C@H](NC(=O)CNC(=O)[C@H](CO)NC(=O)[C@H](CCCCN)NC(=O)[C@@H](NC(=O)[C@H](C)NC(=O)[C@H](Cc1c[nH]cn1)NC(=O)[C@H](CO)NC(=O)[C@@H](NC(=O)[C@H](CCCCN)NC(=O)[C@H](Cc1c[nH]cn1)NC(=O)[C@H](Cc1ccccc1)NC(=O)[C@@H](NC(=O)[C@H](CCCCN)NC(=O)[C@H](CCCCN)NC(=O)[C@H](Cc1ccccc1)NC(=O)C(Cc1c[nH]c2ccc(Br)cc12)NC(=O)CN)[C@@H](C)O)C(C)C)C(C)C)C(=O)N[C@@H](Cc1c[nH]cn1)C(=O)N[C@@H](C)C(=O)NCC(=O)N[C@@H](CCC(N)=O)C(=O)N[C@@H](CCCNC(=N)N)C(=O)NCC(=O)N[C@@H](CS)C(=O)N[C@@H](CO)C(=O)N[C@@H](C)C(=O)N[C@@H](CC(C)C)C(=O)NCC(=O)N[C@@H](Cc1ccccc1)C(=O)O` (some centres unmarked) [P17 HC-Br] (HELM PEPTIDE1{G.[O=C(C(Cc1c[nH]c2ccc(Br)cc12)N[*:1])[*:2]].F.K.K.T.F.H.K.V.S.H.A.V.K.S.G.I.H.A.G.Q.R.G.C.S.A.L.G.F}$$$$V2.0), the “Minimal inhibitory concentration, L. anguillarum” value in data set [1] is 0.78 µM (≈ 2.59 µg/mL). Besides, the “Minimal inhibitory concentration (MIC), Rhodotorula sp.” value in data set [2] turned out to be 3.12 µM (≈ 10.4 µg/mL). In data set [3], this molecule gave a CC50 at 5 h of 51.1 µM.

Regarding GWFKKTFHKVSHAVKSGIHAGQRGCSALGF [P17 HC], the “Minimal inhibitory concentration, L. anguillarum” value in data set [1] came out at 0.78 µM. Also, the “Minimal inhibitory concentration (MIC), Rhodotorula sp.” value in data set [2] was 3.12 µM. Besides, the pIC50 in data set [4] and in data set [5] was 4.28 each time. Besides, the CC50 at 5 h in data set [3] worked out at 38 µM.
